Legend:
Assay in all cases: relative viability (nuclei count vs DMSO), 5 days (fraction); higher = more cells survive
Bortezomib + Dasatinib = compound: CC(C)C[C@H](NC(=O)[C@H](Cc1ccccc1)NC(=O)c1cnccn1)B(O)O [Bortezomib] + Cc1nc(Nc2ncc(C(=O)Nc3c(C)cccc3Cl)s2)cc(N2CCN(CCO)CC2)n1 [Dasatinib] (partner 0.075 µM)
Summary of the method: (§1)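 Lung cancer cell lines were pin-tool dosed in 1536-well plates on the day after seeding, with either a lone drug or a fixed anchor-drug dose plus five library-drug doses (not always all listed) in √10 steps. Nuclei were counted on 4× images after 5 days. Relative viability is the ratio of treated-well to vehicle-well nuclei counts, with each value a median of duplicate plates.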

Obatoclax + Luminespib = compound: COC1=CC(c2cc3ccccc3[nH]2)=N/C1=C\c1[nH]c(C)cc1C [Obatoclax] + CCNC(=O)c1noc(-c2cc(C(C)C)c(O)cc2O)c1-c1ccc(CN2CCOCC2)cc1 [Luminespib] (partner 0.01 µM)
Summary of the method: as §1

Obatoclax + Linsitinib = compound: COC1=CC(c2cc3ccccc3[nH]2)=N/C1=C\c1[nH]c(C)cc1C [Obatoclax] + C[C@]1(O)C[C@@H](c2nc(-c3ccc4ccc(-c5ccccc5)nc4c3)c3c(N)nccn32)C1 [Linsitinib] (partner 1 µM)
Summary of the method: as §1

Obatoclax + AZD7762 = compound: COC1=CC(c2cc3ccccc3[nH]2)=N/C1=C\c1[nH]c(C)cc1C [Obatoclax] + NC(=O)Nc1cc(-c2cccc(F)c2)sc1C(=O)N[C@H]1CCCNC1 [AZD7762] (partner 0.2 µM)
Summary of the method: as §1

| Cell Line | relative viability (Bortezomib + Dasatinib; first compound 0.0002 µM) | relative viability (Bortezomib + Dasatinib; first compound 0.000632 µM) | relative viability (Bortezomib + Dasatinib; first compound 0.002 µM) | relative viability (Bortezomib + Dasatinib; first compound 0.006325 µM) | relative viability (Bortezomib + Dasatinib; first compound 0.02 µM) | relative viability (Obatoclax + Luminespib; first compound 0.01 µM) | relative viability (Obatoclax + Luminespib; first compound 0.03162 µM) | relative viability (Obatoclax + Luminespib; first compound 0.1 µM) | relative viability (Obatoclax + Luminespib; first compound 0.3162 µM) | relative viability (Obatoclax + Luminespib; first compound 1 µM) | relative viability (Obatoclax + Linsitinib; first compound 0.01 µM) | relative viability (Obatoclax + Linsitinib; first compound 0.03162 µM) | relative viability (Obatoclax + Linsitinib; first compound 0.1 µM) | relative viability (Obatoclax + Linsitinib; first compound 0.3162 µM) | relative viability (Obatoclax + Linsitinib; first compound 1 µM) | relative viability (Obatoclax + AZD7762; first compound 0.01 µM) | relative viability (Obatoclax + AZD7762; first compound 0.03162 µM) | relative viability (Obatoclax + AZD7762; first compound 0.1 µM) | relative viability (Obatoclax + AZD7762; first compound 0.3162 µM) | relative viability (Obatoclax + AZD7762; first compound 1 µM) |
| --- | --- | --- | --- | --- | --- | --- | --- | --- | --- | --- | --- | --- | --- | --- | --- | --- | --- | --- | --- | --- |
| NCI-H2085 | 0.31 | 0.253 | 0.207 | 0.209 | 0.241 | 0.389 | 0.432 | 0.44 | 0.283 | 0.347 | 0.969 | 0.85 | 0.856 | 0.602 | 0.523 | 0.932 | 0.991 | 0.952 | 0.621 | 0.299 |
| NCI-H1651 | 0.387 | 0.442 | 0.153 | 0.105 | 0.0988 | 0.866 | 0.792 | 1.16 | 0.811 | 0.516 | 0.915 | 0.961 | 0.91 | 0.432 | 0.271 | 0.488 | 0.4 | 0.421 | 0.431 | 0.439 |
| RERF-LC-KJ | 0.833 | 0.695 | 0.946 | 0.219 | 0.234 | 1.07 | 1.32 | 1.04 | 0.583 | 0.554 | 0.884 | 0.947 | 0.871 | 0.868 | 0.808 | 1.04 | 0.914 | 0.732 | 0.838 | 0.923 |
| NCI-H1755 | 0.449 | 0.326 | 0.418 | 0.176 | 0.196 | 0.416 | 0.418 | 0.388 | 0.714 | 0.713 | 0.986 | 0.996 | 0.96 | 0.991 | 1.03 | 0.387 | 0.468 | 0.381 | 0.457 | 0.423 |
| NCI-H2170 | 0.546 | 0.378 | 0.502 | 0.16 | 0.144 | 0.624 | 0.592 | 0.761 | 0.588 | 0.652 |  |  |  |  |  | 0.851 | 0.844 | 0.801 | 0.831 | 0.743 |
| NCI-H2126 | 0.58 | 0.607 | 0.662 | 0.254 | 0.2 | 0.857 | 0.876 | 0.875 | 0.806 | 0.679 | 0.684 | 0.713 | 0.722 | 0.712 | 0.705 | 1.08 | 0.951 | 1.05 | 1.06 | 0.974 |
| EPLC-272H | 0.342 | 0.192 | 0.277 | 0.0803 | 0.0618 | 0.377 | 0.235 | 0.393 | 0.189 | 0.168 | 1.13 | 1.22 | 1.15 | 1.03 | 1.2 | 0.236 | 0.145 | 0.155 | 0.192 | 0.229 |
| NCI-H1975 | 0.385 | 0.266 | 0.106 | 0.0685 | 0.084 | 0.316 | 0.196 |  | 0.472 | 0.306 | 0.988 | 0.989 | 0.99 | 0.939 | 0.971 | 0.744 | 0.654 |  | 0.728 | 0.756 |

From the supplement of paper PMC10307832
